Structures are written as SMILES. pIC50: −log10 of the molar value. ≈ marks a conversion by molar mass, not a printed value. Calls of active or inactive are those of the source. The rule behind the calls is not given here. A value given as a limit tells only on which side of the number the result lay.

The test system of data set [1] is Candida albicans. As to the kind of experiment: Antifungal activity against Candida albicans SC5314 assessed as inhibition of fungal growth incubated for 24 hrs by CLSI protocol based broth microdilution method. In kind it is functional.
Data set [2] has as its system Candida albicans. Put plainly: Antifungal activity against Candida albicans SC5314 assessed as inhibition of hyphae growth incubated for 24 hrs by CLSI protocol based broth microdilution method. In kind it is functional. Background: In broth dilution the organism is exposed to a series of concentrations in liquid medium.
A short description of data set [3]: Cytotoxicity against human BEAS-2B cells incubated for 48 hrs by CCK-8 method. Type of data set: toxicity, cell-based. For orientation: Tetrazolium dyes change colour on reduction, which living cells bring about.
A short description of data set [4]: Cytotoxicity against human HUVEC cells incubated for 48 hrs by CCK-8 method. In kind it is toxicity, cell-based.
Data set [5] can be described thus: Hemolytic activity in mouse RBC assessed as hemolysis at 2 to 32 ug/ml incubated for 60 mins by absorbance based analysis relative to control. Conditions: mouse red blood cells, at 2 to 32 µg/mL, dose 2-32 µg/ml, read-out: Activity. In kind it is toxicity, cell-based, Erythrocyte.
Data set [6] relates to Candida albicans. As to the kind of experiment: Antifungal activity against Candida albicans SN152 assessed as inhibition of fungal growth incubated for 24 hrs by CLSI protocol based broth microdilution method. Type of data set: functional.
Data set [7] concerns Candida albicans. As to the kind of experiment: Antifungal activity against Candida albicans erg6delta/delta assessed as inhibition of fungal growth incubated for 24 hrs by CLSI protocol based broth microdilution method. Type of data set: functional.
Data set [8] concerns Candida albicans. As to the kind of experiment: Synergistic antifungal activity against Candida albicans SC5314 assessed as inhibition of fungal growth incubated for 24 hrs in presence of (Z)-1,5-dimethyl-4-(4-(naphthalen-2-yl)-2-(phenylimino)thiazol-3(2H)-yl)-2-phenyl-1,2-dihydro-3H-pyrazol-3-one by broth microdilution checkerboard assay. Type of data set: functional.
Data set [9] has as its system Candida albicans. Put plainly: Synergistic antifungal activity against Candida albicans SC5314 assessed as inhibition of fungal growth incubated for 24 hrs in presence of (Z)-4-(4-(4-bromophenyl)-2-(phenylimino)thiazol-3(2H)-yl)-1,5-dimethyl-2-phenyl-1,2-dihydro-3H-pyrazol-3-one by broth microdilution checkerboard assay. In kind it is functional.
Data set [10] has as its target T1, Sterol 24-C-methyltransferase (Candida albicans (strain SC5314 / ATCC MYA-2876) (Yeast), UniProt O74198).
T1 sequence (O74198 whole entry): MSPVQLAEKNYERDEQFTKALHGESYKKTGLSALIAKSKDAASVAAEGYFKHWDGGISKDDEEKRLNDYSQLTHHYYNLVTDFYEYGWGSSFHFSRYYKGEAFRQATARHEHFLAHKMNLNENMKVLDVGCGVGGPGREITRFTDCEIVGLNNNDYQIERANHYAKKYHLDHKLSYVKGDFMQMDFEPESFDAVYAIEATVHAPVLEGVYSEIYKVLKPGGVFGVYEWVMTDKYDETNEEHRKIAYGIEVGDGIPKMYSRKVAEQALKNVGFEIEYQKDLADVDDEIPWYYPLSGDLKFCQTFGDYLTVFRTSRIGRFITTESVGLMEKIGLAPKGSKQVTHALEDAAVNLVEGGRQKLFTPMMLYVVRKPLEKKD
As to the kind of experiment: Inhibition of recombinant Candida albicans SC5314 Erg6 methyltransferase activity using zymosterol as substrate incubated for 15 mins followed by substrate addition by liquid scintillation counter analysis.

Data set [11] relates to Candida albicans. As to the kind of experiment: Synergistic antifungal activity against Candida albicans SC5314 assessed as inhibition of fungal growth incubated for 24 hrs in presence of tridemorph by broth microdilution checkerboard assay. Type of data set: functional.
Data set [12] has as its system Candida albicans. As to the kind of experiment: Antifungal activity against Candida albicans SC5314 assessed as inhibition of hyphae growth measured after 30 passages. Type of data set: functional, organism-based.
Data set [13] deals with Candida albicans. As to the kind of experiment: Synergistic antifungal activity against Candida albicans SC5314 assessed as inhibition of fungal growth incubated for 24 hrs in presence of terbinafine by broth microdilution checkerboard assay. Type of data set: functional.
The subject of data set [14] is Candida albicans. As to the kind of experiment: Synergistic antifungal activity against Candida albicans SC5314 assessed as fractional inhibitory concentration index incubated for 24 hrs in presence of tridemorph by broth microdilution checkerboard assay. Type of data set: functional.
The subject of data set [15] is Candida albicans. As to the kind of experiment: Synergistic antifungal activity against Candida albicans SC5314 assessed as fractional inhibitory concentration index incubated for 24 hrs in presence of terbinafine by broth microdilution checkerboard assay. In kind it is functional.

`Cc1c(-n2c(-c3ccc4ccccc4c3)cs/c2=N\c2ccc(C(F)(F)F)cc2)c(=O)n(-c2ccccc2)n1C`: the MIC80 with Candida albicans [1] was over 128 µg/mL. The MIC50 in the data set on Candida albicans [2] worked out at 2 µg/mL (≈ 3.59 µM). Further, the half-maximal effective concentration (EC50) at 48 h in data set [3] and in [4] was over 50 µg/mL throughout. For the same molecule, in data set [5], the hemolysis at 1 h is under 1%.

Take `CCCCCCCCCCCCCN1CC(C)OC(C)C1` (stereo unspecified) [TRIDEMORPH]: the MIC80 was over 128 µg/mL in the data set with Candida albicans [1]; over 128 µg/mL in the data set with Candida albicans [6]; 0.008 µg/mL (≈ 0.0269 µM) in the data set with Candida albicans [7]; 0.008 µg/mL in the data set on Candida albicans [8]; 0.5 µg/mL with Candida albicans [9].

Consider `Cc1c(-n2c(-c3ccc(Br)cc3)cs/c2=N\c2ccccc2)c(=O)n(-c2ccccc2)n1C`, for which the figures for the MIC80 in the data set on Candida albicans [1], in the data set with Candida albicans [11] and in the data set with Candida albicans [13] were over 128 µg/mL, 8 µg/mL and 8 µg/mL, respectively. Moreover, the MIC50 in the data set on Candida albicans [2] is 2 µg/mL (≈ 3.87 µM). The EC50 at 48 h in data set [3] and in [4] was over 50 µg/mL each time. Moreover, the hemolysis at 1 h in [5] was under 1%. Moreover, the pIC50 in [10] is 5.99. For the same molecule, in the data set on Candida albicans [12], the outcome was Active. Besides, the “fractional inhibitory concentration index (FICI)” value in the data set with Candida albicans [14] and in the data set with Candida albicans [15] was under 0.1 in each case.

Consider `Cc1c(-n2c(-c3ccc(Br)cc3)cs/c2=N\c2ccc(Br)cc2)c(=O)n(-c2ccccc2)n1C`, for which the MIC80 with Candida albicans [1] is over 128 µg/mL. Besides, in the data set with Candida albicans [2], the MIC50 stood at 1 µg/mL (≈ 1.68 µM). Moreover, the EC50 at 48 h in data set [3] and in [4] was over 50 µg/mL each time. Moreover, in [5], the hemolysis at 1 h was under 1%.

For `Cc1c(-n2c(-c3ccc4ccccc4c3)cs/c2=N\c2ccc(Br)cc2)c(=O)n(-c2ccccc2)n1C`, the MIC80 with Candida albicans [1] is over 128 µg/mL. In addition, the MIC50 with Candida albicans [2] came to 2 µg/mL (≈ 3.52 µM). For the same molecule, the EC50 at 48 h in [3] and in data set [4] was over 50 µg/mL in each case. Besides, in data set [5], the hemolysis at 1 h is under 1%.

For the molecule `Cc1c(-n2c(-c3ccc(Br)cc3)cs/c2=N\c2ccc3ccccc3c2)c(=O)n(-c2ccccc2)n1C`, the MIC80 in the data set on Candida albicans [1] is over 128 µg/mL. For the same molecule, the MIC50 with Candida albicans [2] came to 1 µg/mL (≈ 1.76 µM). In addition, the EC50 at 48 h in data set [3] and in data set [4] was over 50 µg/mL throughout. Besides, the hemolysis at 1 h in data set [5] was under 1%.

For the molecule `Cc1c(-n2c(-c3ccc(N(C)C)cc3)cs/c2=N\c2ccccc2)c(=O)n(-c2ccccc2)n1C`, in the data set on Candida albicans [1], the MIC80 is over 128 µg/mL. Further, the MIC50 in the data set with Candida albicans [2] was 2 µg/mL (≈ 4.15 µM). Moreover, the EC50 at 48 h in [3] and in data set [4] was over 50 µg/mL in each case. The hemolysis at 1 h in [5] was under 1%.

As to `CN(C/C=C/C#CC(C)(C)C)Cc1cccc2ccccc12` [TERBINAFINE], the MIC80 with Candida albicans [1] worked out at 32 µg/mL (≈ 110 µM); with Candida albicans [6], 32 µg/mL (≈ 110 µM); in the data set with Candida albicans [7], 0.5 µg/mL (≈ 1.72 µM); in the data set on Candida albicans [8], 0.008 µg/mL; in the data set on Candida albicans [9], 0.5 µg/mL.

In general, MIC80 refers to the lowest concentration that inhibits either 80% of growth or 80% of the strains tested, depending on the study. One may read the MIC50 as the lowest concentration that inhibits either 50% of growth or 50% of the strains tested, depending on the study. The EC50 is the midpoint of the concentration-response curve. Read a low EC50 as higher potency in that assay. The term pIC50 denotes the negative decadic logarithm of the IC50, by convention in mol/L.
